Laboratory results taken from patent US20040167164A1, “Compositions and methods for treating particular chemical addictions and mental illnesses” (priority 1998, published 2004).
Values joined by “and” are separate entries in the source; they are usually repeats but may differ in a detail not shown here. Equal entries are not always repeated. “Also recorded” adds a separate entry of the source.

Columns and labels:
[1] = system: patients with dual disorder; experiment: Length of hospitalization of treated patients (Table I); settings: human, in vivo
addiction to heroin = system: addiction to heroin
Description: (§1) Sixteen patients, randomly selected, addicted to heroin, cocaine, or cocaine and alcohol, were assigned to 3 different treatment groups, as follows:
(§2) a) A group of 6 patients, 3 of them addicted to heroin, and another 3 addicted to cocaine plus alcohol, were treated with AMPT alone.
(§3) b) Another group of 6 patients, 3 addicted to heroin and another 3 to cocaine plus alcohol, were treated with Haloperidol alone.
(§4) c) Another group of 4 patients, 2 addicted to heroin and another 2 addicted to cocaine and alcohol, were treated with placebo from the first day of admission.
(§5) The treatment protocol was as follows:
(§6) 2) All patients received the same proper amount of the alkalinizer Polycitra to produce a urinary pH around 7.8.
(§7) 4) All patients started treatment immediately after they arrived before they could develop any signs of withdrawal.
(§8) 5) Because of the difficulty to fulfill the above requirement of having consumed drugs on the same day of admission, all patients could not be treated simultaneously. This requirement was instated to maintain similarity with many other patients in our general program, where patients are started on treatment immediately after they arrive, even if they arrive immediately after consuming large amounts of the addicting drug(s).

[2] = system: addiction to cocaine plus alcohol; experiment: 16 patient study, patients addicted to cocaine plus alcohol; type: in vivo, human; settings: three patients
Description: as §1, §2, §3, §4, §5, §6, §7, §8

[3] = system: rats exposed to cigarette extract and smoke; experiment: Rats given cigarette extract water and cigarette smoke, choice test; type: in vivo; settings: after 18 hours
Description: A cigarette extract was obtained by burning cigarettes and collecting the tar, nicotine, and other products of cigarette combustion by a perforated plastic tube tied to the exhaust of a miniature vacuum cleaner. The air and smoke was passed through a container of water in which the cigarette extract was deposited. This drinking water was subsequently given to the animals. In addition to bottle feeding rats with the cigarette extract water (equivalent to 6 cigarettes per rat per day), the rats were also exposed to cigarette smoke. The rats were exposed for 2 hours at 8 hour intervals, for a total of 6 hours a day, to cigarette smoke in a sealed chamber. After a period of 4 months, 24 animals died of different causes, pneumonia among them, and 66 survived. The remaining 66 animals were divided in two groups: 35 were treated with AMPT orally, and 31 were kept as controls. The urine was alkalinized in both groups with Polycitra to a pH of about 7.8.
At the end of 4 months, all rats were given the choice to continue drinking the same cigarette extract contaminated water or drink pure drinking water in equal amounts. All animals were given the choice to be in the cigarette smoke filled chamber or to use clean air quarters. […]

[4] = type: in vivo; settings: with Polycitra orally, urine pH about 7.8 to 8
Description: Once known that AMPT produced crystalluria, which prevented its use in humans, the present inventor conducted research to find a solution to the crystalluria problem. Specifically, this research was directed to provide a composition containing AMPT that could be used in the treatment of patients suffering from different conditions and without the formation of AMPT crystalluria. This was accomplished with extensive research in animals, such as mice, rats, mongrel and beagle dogs, to which AMPT with a urine alkalinizer was administered. The alkalinization was obtained with Polycitra, administered orally, and in an amount to obtain a urine pH of about 7.8 to 8.

[5] = system: rats made dependent on alcohol; experiment: Rats made dependent on alcohol (25% alcohol solution); type: in vivo; settings: AMPT 300 mg per kg of body weight
Description: Subsequently, it was observed that rats made dependent on alcohol (25% alcohol solution) would prefer again to drink plain water, instead of the alcohol solution upon which they had been made dependent, when treated with AMPT (300 mg per kg of body weight), with their preference being manifested after 2-4 days of treatment.

[6] = system: morphine addicted monkeys; experiment: Craving and abstinence syndrome in narcotic-addicted monkeys; type: in vivo; settings: bar-presses; withdrawal symptoms, aggressive behavior
Description: Equally the same, at present it is well known that all addictions have in common a biochemical factor—the alteration of the dopamine synthesis and its transporters.
Based on the above, we further hypothesized that the combination of both agents would render better results than any one of them alone.

[7] = system: craving and abstinence symptoms; experiment: Unintentional simple blind study with defective AMPT capsules; type: in vivo, human; settings: capsules containing less than half the intended amount of AMPT
Description: Moreover, it was confirmed that the effective agent in abolishing craving and abstinence symptoms in humans was the action of AMPT and none of the other agents given—Akineton or Polycitra—when in our first studies in humans, unknowingly we administered to patients capsules in which the amount of AMPT contained was less than half the amount of AMPT they should have had. The excessive amount of filler (calcium stearate) put in the capsulating machine in order to render the blended mixture more fluid and less compact, given the heavy consistency of the AMPT that was otherwise difficult for incorporation into capsules, was so excessive that it decreased the amount of AMPT in the capsules to less than half of what it should have been.
Once we knew the cause of the failure, we started to administer the proper dosage of AMPT. The patients then responded. […] The number of patients treated with different addictions, convinced us that the association of AMPT with Haloperidol produces very outstanding and beneficial results.

[8] = system: tobacco addiction (nicotine); experiment: Treatment of smokers (nicotine dependence); parameters: species or system human; settings: in vivo
Description: Furthermore, the present inventor utilized the combination of Haloperidol and AMPT by administering small doses of Haloperidol, 2 mg, (6 mgs total per day) for a healthy human, weighing 70 kg, simultaneously with the initiation of treatment with AMPT.
Generally, the administration of Haloperidol was discontinued after 7-10 days, while AMPT was administered for a period of at least three months in doses of 250 mg b.i.d.

heroin addiction = experiment: Case reports, heroin addiction
[9] = system: homovanilic acid (HVA), a dopamine metabolite; experiment: Urinary dopamine metabolites during Haloperidol administration; type: in vivo, human; settings: for dopamine metabolites (HVA) in urine: bipolar, manic and paranoid schizophrenic patients
Description: While studying human subjects, diagnosed with bipolar illness, the effects of administering Haloperidol on the metabolites of the neurotransmitter dopamine (DA) were analyzed.
The urinary studies were done for a period of 6 weeks in eight patients chosen for the study (three manic patients and five schizophrenics of the paranoid type).

alcoholism = experiment: Treatment of alcoholic patients; type: in vivo, human; settings: follow-up 2 to 3 years

With CC(N)(Cc1ccc(O)cc1)C(=O)O (stereo not drawn) [AMPT, alpha-methyl-para-tyrosine] as the compound, how does the “Average Length of Hospitalization” value [1] read?
Its value is 47 days.

And the “Longest Hospitalization” value [1]?
Its value is 97 days.

And the “Shortest Hospitalization” value [1]?
The value was 26 days.

What about the “day when patients had no craving or abstinence symptoms” value (addiction to heroin; three patients) of the same compound?
The value was “sixth day”.

What about the “day when craving for cocaine started to remit” value [2] of the same compound?
Its value is “fifth day”.

What about the “day when craving for cocaine was totally extinguished” value [2] of the same compound?
The value was “seventh”.

What about the choice of chamber [3] of the same compound?
The choice of chamber was “totally avoiding the smoke filled compartment”.

What about the “choice of drinking water” value ([3]; AMPT orally, discontinued two days in advance) of the same compound?
Its value is “chose to continue drinking the pure water”.

And the “safety (autopsy, macroscopic, microscopic, electron-microscopy)” value [4]?
Its value is “safety being confirmed by autopsy”.

What about the “time until preference for plain water instead of alcohol solution” value [5] of the same compound?
Its value is 2 to 4 days.

And the “craving and manifestations of the abstinence syndrome” value [6]?
Its value is “abolition of craving and withdrawal in all animals; also recorded: abolish the craving for morphine and the manifestations of the abstinence syndrome”.

What about the patient response [7] of the same compound?
The patient response was “failed to respond”.

And the “time to almost total cessation of the acute symptoms” value (schizophrenia and mania; Haloperidol 10-15 mg t.i.d. when added)?
The value was 24 to 30 h.

What about the “relapse of symptoms at follow-up on maintenance” value (schizophrenia and mania; case reports 8, 10, 11, follow-up 1-2 years) of the same compound?
The value was “did not have any more phases of mania or depression”.

What about the “time until craving to smoke is lost” value [8] of the same compound?
Its value is 2 to 4 days and 2 to 3 days.

And the “time to discharge from hospital” value (heroin addiction; case reports 1, 2, 16, 17, 18)?
The value was 65 days and 78 days.

What about the “craving and abstinence symptoms” value (heroin addiction; case reports 1, 2, 17, 18) of the same compound?
The value was “no abstinence symptoms appearing”.

And the “relapse to drugs at follow-up” value (heroin addiction; follow-up 14 months to 1½ years)?
The value was “had not taken any drugs”.

For OC(CCN1CCCCC1)(c1ccccc1)C1CC2C=CC1C2 (stereo not shown) [Akineton], which “dopamine metabolites (HVA) in urine” value [9] is on record?
Its value is “not related to the increase in dopamine metabolites”.

For O=C(CCCN1CCC(O)(c2ccc(Cl)cc2)CC1)c1ccc(F)cc1 [Haloperidol, 4-[4-(p-chlorophenyl)-4-hydroxy-piperidino]-4′-fluorobutyrophe], which “overall conclusion on treatment of addiction” value (addiction to heroin; 16 patient study, heroin and cocaine plus alcohol) is on record?
The value was “useless”.

And the “severity of withdrawal symptoms compared with no treatment agent” value (addiction to heroin; human, in vivo)?
The value was “more severe”.

What about the “onset of severe manifestations of withdrawal” value (addiction to heroin; three patients) of the same compound?
Its value is 26 to 30 h.

What about the craving for cocaine ([2]; up to sixth day) of the same compound?
Its craving for cocaine is “did not subside”.

And the “craving and manifestations of the abstinence syndrome” value [6]?
The value was “did not modify the craving”.

And the “clinical symptoms after a month of treatment” value ([9]; Haloperidol exclusively, up to 60 mg a day, three paranoid and two manic patients)?
Its value is “not totally controlled”.

What about the “dopamine metabolites (HVA) in urine” value [9] of the same compound?
The value was “increasing; also recorded: increased gradually and quantitatively in urine”.

And the “time to maximum HVA concentration in urine” value ([9]; continued Haloperidol administration)?
Its value is 3-4 weeks.

With O=C1CC[C@@]2(O)[C@H]3Cc4ccc(O)c5c4[C@@]2(CCN3CC2CC2)[C@H]1O5 [Naltrexone] as the compound, how does the “relapse into alcohol at follow-up” value (alcoholism) read?
The value was “none”.
